This experiment concerns the target T1, CYP11A1 (Homo sapiens, UniProt P05108).
T1 construct: human H295R adrenocortical carcinoma cell line was used as source of enzyme; endogenous in cells; host or cells: H295R human adrenocortical carcinoma cells
T1 sequence (P05108 40-521): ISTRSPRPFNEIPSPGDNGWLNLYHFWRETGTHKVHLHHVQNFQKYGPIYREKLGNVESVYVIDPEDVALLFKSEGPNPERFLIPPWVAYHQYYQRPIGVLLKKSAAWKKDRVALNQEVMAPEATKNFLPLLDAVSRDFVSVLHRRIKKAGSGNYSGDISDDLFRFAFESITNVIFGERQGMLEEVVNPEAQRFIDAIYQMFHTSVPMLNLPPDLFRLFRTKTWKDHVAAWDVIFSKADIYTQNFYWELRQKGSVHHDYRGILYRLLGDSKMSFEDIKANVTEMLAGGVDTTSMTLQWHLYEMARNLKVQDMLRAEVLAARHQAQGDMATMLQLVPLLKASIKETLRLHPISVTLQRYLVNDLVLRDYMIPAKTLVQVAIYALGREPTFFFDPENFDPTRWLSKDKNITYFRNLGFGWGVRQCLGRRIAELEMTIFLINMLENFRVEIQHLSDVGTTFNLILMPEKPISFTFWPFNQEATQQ
Briefly: CYP11A1 inhibition: modified isocaproic acid release assay (IARA) in H295R cells. Format: cell-based. Particulars: human H295R adrenocortical carcinoma cells treated three days, 3 nM [24,25-3H]-labelled cholesterol, 1% DMSO, 10 concentrations in duplicates; read-out: IC50 of the test compounds on CYP11A1 inhibition. In short, it runs like this:
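H295R adrenocortical cells treated three days with test compounds at 10 concentrations in duplicate plus 3 nM [24,25-3H]-cholesterol, 1% DMSO final. Released radiolabelled isocaproic acid measured by scintillation counting after dextran-coated charcoal extraction; IC50 determined.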
Turning to `O=c1cc(CN2Cc3ccc(F)cc3C2)occ1OCc1ccc(C2(O)COC2)cc1` [Compound 115, 2-((5-Fluoroisoindolin-2-yl)methyl)-5-((4-(3-hydroxyoxetan-3-yl)benzyl)oxy)-4H-pyran-4-one], the IC50 is less than 0.15 µM.

Take `CS(=N)(=O)c1ccc(COc2coc(CN3Cc4ccccc4C3)cc2=O)cc1` (centres unmarked) [Compound 86, 2-(Isoindolin-2-ylmethyl)-5-((4-(S-methylsulfonimidoyl)benzyl)oxy)-4H-pyran-4-one]: the IC50 was in the range of 0.15 to 0.3 µM.

Regarding `O=C(N1CCOCC1)N1CCC(COc2coc(CN3Cc4ccccc4C3)cc2=O)CC1` [Compound 232, 2-(Isoindolin-2-ylmethyl)-5-((1-(morpholine-4-carbonyl)piperidin-4-yl)methoxy)-4H-pyran-4-one], the IC50 was less than 0.15 µM.

On to `CS(=O)(=O)c1ccc(COc2coc(CN3Cc4ccccc4C3)cc2=O)c(C(F)(F)F)c1` [Compound 19, 2-(Isoindolin-2-ylmethyl)-5-((4-(methylsulfonyl)-2-(trifluoromethyl)benzyl)oxy)-4H-pyran-4-one], for which the IC50 fell in the range of 0.301 to 2 µM.

In the case of `CC(F)(F)C(=O)N1CCC(COc2coc(CN3Cc4ccc(F)cc4C3)cc2=O)CC1` [Compound 223, 5-((1-(2,2-Difluoropropanoyl)piperidin-4-yl)methoxy)-2-((5-fluoroisoindolin-2-yl)methyl)-4H-pyran-4-one], the IC50 was 0.15 to 0.3 µM.

Turning to `CNC(=S)N1CCC(COc2coc(CN3Cc4ccccc4C3)cc2=O)CC1` [Compound 250, 4-(((6-(Isoindolin-2-ylmethyl)-4-oxo-4H-pyran-3-yl)oxy)methyl)-N-methyl-piperidine-1-carbothioamide], the IC50 fell in the range of 0.15 to 0.3 µM.

Consider `CS(=O)(=O)NCC1CCC(COc2coc(CN3Cc4ccccc4C3)cc2=O)CC1` (centres unmarked) [Compound 173, N-((4-(((6-(Isoindolin-2-ylmethyl)-4-oxo-4H-pyran-3-yl)oxy)methyl)cyclohexyl)-methyl)methanesulfonamide], for which the IC50 was less than 0.15 µM.

Consider `CC(c1cc(=O)c(OCC2CCN(S(C)(=O)=O)CC2)co1)N1Cc2ccccc2C1` (centres unmarked) [Compound 195], for which the half-maximal inhibitory concentration (IC50) is less than 0.15 µM.

In the case of `CS(=O)(=O)N1CCC(COc2coc(CN3Cc4ccc([N+](=O)[O-])cc4C3)cc2=O)CC1` [Compound 207, 5-((1-(Methylsulfonyl)piperidin-4-yl)methoxy)-2-((5-nitroisoindolin-2-yl)methyl)-4H-pyran-4-one], the half-inhibitory concentration (IC50) fell in the range of 0.301 to 2 µM.

In the case of `CN(C)C(=O)c1cc(F)c(COc2coc(CN3Cc4ccccc4C3)cc2=O)c(F)c1` [Compound 172, 3,5-Difluoro-4-(((6-(isoindolin-2-ylmethyl)-4-oxo-4H-pyran-3-yl)oxy)methyl)-N,N-dimethylbenzamide], the IC50 was less than 0.15 µM.

In the case of `CC(C)(CO)NC(=O)c1ccc(COc2coc(CN3Cc4ccccc4C3)cc2=O)cc1` [Compound 283, N-(1-hydroxy-2-methylpropan-2-yl)-4-(((6-(isoindolin-2-ylmethyl)-4-oxo-4H-pyran-3-yl)oxy)methyl)benzamide], the half-maximal inhibitory concentration (IC50) was 0.15 to 0.3 µM.

Regarding `CC(C)NC(=O)N1CCC(COc2coc(CN3Cc4ccccc4C3)cc2=O)CC1` [Compound 229, 4-(((6-(Isoindolin-2-ylmethyl)-4-oxo-4H-pyran-3-yl)oxy)methyl)-N-isopropyl-piperidine-1-carboxamide], the IC50 is less than 0.15 µM.

As to `CN(C)C(=O)c1ccc(COc2coc(CN3Cc4cc(F)c(F)cc4C3)cc2=O)cc1` [Compound 82a, 4-(((6-((5,6-Difluoroisoindolin-2-yl)methyl)-4-oxo-4H-pyran-3-yl)oxy)methyl)-N,N-dimethylbenzamide], the IC50 is 0.15 to 0.3 µM.

In the case of `CC(C)CS(=O)(=O)N1CCC(COc2coc(CN3Cc4ccccc4C3)cc2=O)CC1` [Compound 271, 5-((1-(Isobutylsulfonyl)piperidin-4-yl)methoxy)-2-(isoindolin-2-ylmethyl)-4H-pyran-4-one], the IC50 was less than 0.15 µM.

`O=c1cc(CN2Cc3ccccc3C2)occ1OC[C@H]1CC[C@H](N2CCCS2(=O)=O)CC1` [Compound 216, 5-(((1r,4r)-4-(1,1-Dioxidoisothiazolidin-2-yl)cyclohexyl)methoxy)-2-(isoindolin-2-ylmethyl)-4H-pyran-4-one]: the IC50 was less than 0.15 µM.

Take `CC(C)S(=N)(=O)c1ccc(COc2coc(CN3Cc4ccccc4C3)cc2=O)cc1` (centres unmarked) [Compound 103, 2-(Isoindolin-2-ylmethyl)-5-((4-(propan-2-ylsulfonimidoyl)benzyl)oxy)-4H-pyran-4-one]: the IC50 was less than 0.15 µM.

Regarding `O=c1cc(CN2Cc3ccccc3C2)occ1OCC1CCN(S(=O)(=O)C2CC2)CC1` [Compound 187, 5-((1-(Cyclopropylsulfonyl)piperidin-4-yl)methoxy)-2-(isoindolin-2-ylmethyl)-4H-pyran-4-one], the IC50 is less than 0.15 µM.

For the compound `CC1c2ccccc2CN1Cc1cc(=O)c(OCc2ccc(C(=O)N(C)C)cc2)co1` (centres unmarked) [Compound 77, N,N-Dimethyl-4-(((6-((1-methylisoindolin-2-yl)methyl)-4-oxo-4H-pyran-3-yl)oxy)methyl)benzamide], the IC50 was in the range of 0.301 to 2 µM.

On to `CS(=O)(=O)N1CCC(COc2coc(Cn3cc4ccc(C(F)(F)F)cc4c3)cc2=O)CC1` [Compound 287, 5-((1-(Methylsulfonyl)piperidin-4-yl)methoxy)-2-((5-(trifluoromethyl)-2H-isoindol-2-yl)methyl)-4H-pyran-4-one], for which the IC50 was in the range of 0.301 to 2 µM.

As for `O=c1cc(CN2Cc3ccccc3C2)occ1OCc1ccc(S(=O)(=O)N2CCCC2)cc1` [Compound 5, 2-(Isoindolin-2-ylmethyl)-5-((4-(pyrrolidin-1-ylsulfonyl)benzyl)oxy)-4H-pyran-4-one], the IC50 is less than 0.15 µM.

Consider `CCC(=O)N1CCC(COc2coc(CN3Cc4ccccc4C3)cc2=O)CC1` [Compound 261, 2-(Isoindolin-2-ylmethyl)-5-((1-propionylpiperidin-4-yl)methoxy)-4H-pyran-4-one], for which the IC50 was less than 0.15 µM.

`O=c1cc(CN2Cc3ccccc3C2)occ1OCC1CCN(S(=O)(=O)c2ccc(F)cc2)CC1` [Compound 256, 5-((1-((4-Fluorophenyl)sulfonyl)piperidin-4-yl)methoxy)-2-(isoindolin-2-yl-methyl)-4H-pyran-4-one]: the IC50 is 0.15 to 0.3 µM.

Take `CN(C)C(=O)c1ccc(COc2coc(CN3Cc4ccccc4C3)cc2=O)c(F)c1` [Compound 61, 3-Fluoro-4-(((6-(isoindolin-2-ylmethyl)-4-oxo-4H-pyran-3-yl)oxy)methyl)-N,N-dimethylbenzamide]: the IC50 is 0.15 to 0.3 µM.

Turning to `COC(=O)/C=C/c1ccc(COc2coc(CN3Cc4ccccc4C3)cc2=O)cc1` [Compound 2, Methyl (E)-3-(4-(((6-(isoindolin-2-ylmethyl)-4-oxo-4H-pyran-3-yl)oxy)-methyl)phenyl)acrylate], the IC50 was less than 0.15 µM.

Turning to `COCCS(=O)(=O)N1CCC(COc2coc(CN3Cc4ccccc4C3)cc2=O)CC1` [Compound 262, 2-(Isoindolin-2-ylmethyl)-5-((1-((2-methoxyethyl)sulfonyl)piperidin-4-yl)-methoxy)-4H-pyran-4-one], the IC50 was less than 0.15 µM.

Regarding `CCS(=O)(=O)N1CCC(COc2coc(CN3Cc4ccccc4C3)cc2=O)CC1` [Compound 188, 5-((1-(Ethylsulfonyl)piperidin-4-yl)methoxy)-2-(isoindolin-2-ylmethyl)-4H-pyran-4-one], the IC50 is less than 0.15 µM.

Turning to `O=c1cc(CN2Cc3ccc(F)cc3C2)occ1OCC1CCN(S(=O)(=O)C2CC2)CC1` [Compound 190, 5-((1-(Cyclopropylsulfonyl)piperidin-4-yl)methoxy)-2-((5-fluoroisoindolin-2-yl)methyl)-4H-pyran-4-one], the IC50 is less than 0.15 µM.

On to `CC(=O)N1CCC(CCOc2coc(CN3Cc4ccccc4C3)cc2=O)CC1` [Compound 206, 5-(2-(1-Acetylpiperidin-4-yl)ethoxy)-2-(isoindolin-2-ylmethyl)-4H-pyran-4-one], for which the IC50 lay in the range of 0.301 to 2 µM.

For the compound `CS(=N)(=O)c1ccc(COc2coc(CN3CCc4ccccc4C3)cc2=O)cc1` (centres unmarked) [Compound 87, 2-((3,4-Dihydroisoquinolin-2(1H)-yl)methyl)-5-((4-(S-methylsulfonimidoyl)-benzyl)oxy)-4H-pyran-4-one], the IC50 was in the range of 0.301 to 2 µM.

Turning to `CN(C)C(=O)c1ccc(COc2coc(CN3CCc4cc(F)ccc4C3)cc2=O)cc1` [Compound 124, 4-(((6-((6-Fluoro-3,4-dihydroisoquinolin-2(1H)-yl)methyl)-4-oxo-4H-pyran-3-yl)oxy)methyl)-N,N-dimethylbenzamide], the IC50 lay in the range of 0.15 to 0.3 µM.

Regarding `CN(C)C(=O)c1ccc(COc2coc(CN3Cc4ccc(C(F)(F)F)cc4C3)cc2=O)cc1` [Compound 139, N,N-Dimethyl-4-(((4-oxo-6-((5-(trifluoromethyl)isoindolin-2-yl)methyl)-4H-pyran-3-yl)oxy)methyl)benzamide], the IC50 is less than 0.15 µM.

With `CC(C)(C)NC(=O)c1ccc(COc2coc(CN3Cc4ccccc4C3)cc2=O)cc1` [Compound 131, N-(tert-Butyl)-4-(((6-(isoindolin-2-ylmethyl)-4-oxo-4H-pyran-3-yl)oxy)methyl)-benzamide], the IC50 is less than 0.15 µM.

What is called IC50 is the midpoint of a concentration-inhibition curve.

The values are drawn from patent US11098032B2, “Pyran dervatives as CYP11A1 (cytochrome P450 monooxygenase 11A1) inhibitors” (ORION CORPORATION, priority 2016, dated 2021).
